Assay results reported in patent publication US11787830B2, “Crystalline solids of nicotinic acid mononucleotide and esters thereof and methods of making and use” (Metro International Biotech, LLC, priority 2021, dated 2023).
≈ marks a conversion by molar mass, not a printed value.

Assay: physchem
Protocol: An additional 2 mL of water was added to give a clear solution. […] This was allowed to stir for two days at ambient temperature. The solids were filtered and washed with 15 mL of (2:1 v:v) 1-propanol:water, 15 mL of 1-propanol, then 2×15 mL of methyl tert-butyl ether.

water solubility as ratio water:Compound 2: 50:1 w:w | solubility (water): ~20 mg/mL (≈ 59.7 mM)
SMILES: O=C([O-])c1ccc[n+]([C@@H]2O[C@H](COP(=O)(O)O)[C@@H](O)[C@H]2O)c1 [Compound 2, Nicotinic acid mononucleotide]
